Here are results for 2 compounds from patent US11834458B2, “Anti-cancer nuclear hormone receptor-targeting compounds” (Nuvation Bio Inc., priority 2021, dated 2023).

For assay [1], the target named is ligand binding domain of the glucocorticoid receptor (Homo sapiens (Human), UniProt P04150). The assay can be described thus: GR antagonism assay. Particulars: HEK293 cells stably expressing GR ligand binding domain, dexamethasone 1.5 nM, 20 h. The format is cell-based. On the procedure: GR antagonism assay: To evaluate GR antagonist activity, test compound was added to the assay plate (top dose 5 μM, 4 fold serial dilution, 8 point dose response). HEK293 cells stably expressing the ligand binding domain of the glucocorticoid receptor were seeded at a density of 40,000 cells/well in the assay plate. The assay plate was then incubated at 37° C., 5% CO2 for 30 minutes. Dexamethasone was added to the assay plate at 1.5 nM final concentration and the assay plate was incubated at 37° C., 5% CO2 for 20 h. After the incubation period, Dual-glo luciferase reagent was added to the assay plate and mixed at room temperature for 20 minutes on an orbital shaker, before reading out on the EnVision plate reader.

The next assay has as its target AR (Homo sapiens (Human), UniProt P10275, T878A). The assay is described as follows: AR binding assay. How it is done:
AR binding assay: To assess AR binding, test compound (top dose 10 μM, 4 fold serial dilution, 8 point dose response) and control (progesterone) were transferred to the assay plate. Cytosol from LnCaP cells was added to the plate, followed by addition of radiolabeled ^3H-R1881 at a final concentration of 1 nM. The plate was sealed, and the reaction was incubated at 300 rpm at 4° C. for 24 hrs. Radioligand absorption buffer (10 mM Tris-HCl, pH 7.4; 1.5 mM EDTA; 1 mM DTT; 0.25% charcoal; 0.0025% dextran) was then added to the plate, mixed, and incubated at 4° C. for 15 minutes. The plate was then centrifuged at 3000 rpm for 30 minutes at 4° C. The supernatant was transferred to the scint-tube and Tri-carb was used for scintillation counting. The data was analyzed using GraphPadPrism v5.0 and binding IC50 was determined as the concentration where 50% inhibition of radioligand binding was observed.

In assay [2] the target is Progesterone PR-B receptors (Homo sapiens (Human), UniProt P06401). The assay is described as follows: PR binding assay. Conditions: human breast carcinoma T47D cells, 0.5 nM [3H]Progesterone, 20 hours at 4° C. How it is done: PR binding assay: Progesterone PR-B receptors from human breast carcinoma T47D cells were used in modified Na2HPO4/NaH2PO4 buffer pH 7.4. Compounds were screened at a range of doses (Top dose 40 nM, 4 fold serial dilution, 8 point dose response) and dispensed into the assay plate. Supernatant of 1.2×10^5 cells aliquot were added to the assay plate and incubated with 0.5 nM [^3H]Progesterone for 20 hours at 4° C. Membranes were filtered and washed, the filters were then counted to determine [^3H]Progesterone specifically bound. Binding IC50 was determined as the concentration where 50% inhibition of radioligand binding was observed.

In assay [3] the target is Progesterone Receptor (PR)-LBD (Homo sapiens (Human), UniProt P06401). The assay is described as follows: PR coactivator antagonist assay. Particulars: 2.5 nM PR-LBD and coactivator peptide, 10 nM progesterone-induced fluorescence response; read-out: PR antagonism. The format is biochemical. How it is done: PR coactivator antagonist assay: Test compound (Top dose 10 μM, 4 fold serial dilution, 8 point dose response) and/or vehicle was incubated with the 2.5 nM Progesterone Receptor (PR)-LBD and coactivator peptide for 30 minutes at RT. Determination of the amount of complex formed was read spectrofluorimetrically (excitation: 337 nm, emission: 520/490 nm). Test compound-induced inhibition of 10 nM progesterone-induced fluorescence response by 50 percent or more (≥50%) indicates receptor antagonist activity.

Another assay concerns T47D cells. The assay can be described thus: Cell viability assay, T47D. The format is cell-based. Conditions: Homo sapiens, T47D, 144 h, read-out: T47D (GI50, nM). How it is done:
Cell viability assay: LNCap, 22Rv1, MCF7, MDAMB361, T47D, and IEC6 cells are seeded at a density of 500-2000 cells/well in 96 well plates, and a ‘T0’ (timepoint 0) was included along with the assay plate. The plates are then incubated at 37° C., 5% CO2 in a cell culture incubator overnight. On the next day, the ‘T0’ plate was assayed using CellTiterGlo (Promega, Inc) according to the manufacturer's instructions. The appropriate compounds are diluted in DMSO and added to the assay plate (final DMSO concentration of 0.1-0.2%) on the next day. The assay plates are incubated for 6 days at 37° C., 5% CO2. After the incubation period, the plates are assayed using CellTiterGlo (Promega, Inc) according to the manufacturer's instructions and luminescence was read on the EnVision plate reader. Inhibition of the tested compounds was determined by the following formula: Inhibition rate (%)=(1−(RLU compound−RLU day0)/(RLU control−RLU day0))*100%. GraphPadPrism was used to analyze the data and determine GI50/IC50 values.

In assay [4] the target is full-length androgen receptor (Homo sapiens (Human), UniProt P10275). The assay is described as follows: AR antagonism assay. The format is cell-based. Particulars: HEK293 cells stably expressing full-length androgen receptor, testosterone 1 nM, 20 h; read-out: AR antagonism. On the procedure: AR antagonism assay: To evaluate AR antagonist activity, test compound was added to the assay plate (top dose 10 μM, 3 fold serial dilution, 10 point dose response). HEK293 cells stably expressing the full-length androgen receptor were seeded at a density of 20,000 cells/well in the assay plate. The assay plate was then incubated at room temperature for 10 minutes and at 37° C., 5% CO2 for 20 minutes. Testosterone was added to the assay plate at 1 nM final concentration and the assay plate incubated at 37° C., 5% CO2 for 20 h. After the incubation period, Steady-glo was added to the assay plate and mixed at room temperature for 20 minutes on an orbital shaker, before reading out on the EnVision plate reader.

For the next assay, the target named is GR (Homo sapiens (Human), UniProt P04150). The assay is described as follows: GR binding assay. Conditions: cytosol from IM-9 cells, 3H-Dexamethasone 1.5 nM, 4° C. 24 hrs. How it is done: GR binding assay: To assess GR binding, test compound (top dose 1 μM, 4 fold serial dilution, 8 point dose response) and control (dexamethasone) were transferred to the assay plate. Cytosol from IM-9 cells was added to the plate, followed by addition of radiolabeled ^3H-Dexamethasone at a final concentration of 1.5 nM. The plate was sealed, and the reaction was incubated at 300 rpm at 4° C. for 24 hrs. Radioligand absorption buffer (10 mM Tris-HCl, pH 7.4; 1.5 mM EDTA; 1 mM DTT; 0.25% charcoal; 0.0025% dextran) was then added to the plate, mixed, and incubated at 4° C. for 15 minutes. The plate was then centrifuged at […] for 30 minutes at 4° C. The supernatant was transferred to the scint-tube and Tri-carb was used for scintillation counting. The data was analyzed using GraphPadPrism v5.0 and binding IC50 was determined as the concentration where 50% inhibition of radioligand binding was observed.

Another assay deals with IEC6 cells. The assay is described as follows: Cell viability assay, IEC6. The format is cell-based. Conditions: Rattus norvegicus, IEC-6, 144 h, read-out: IEC-6 (IC50, nM). The procedure, abridged: (§1)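 Cells seeded overnight at 37 °C, 5% CO2, with a T0 plate read at compound addition; compounds added in DMSO (final 0.1-0.2%) for 6 days. CellTiterGlo luminescence; inhibition calculated relative to day-0 and vehicle signals, giving GI50/IC50 values.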

Another assay deals with LNCap cells. The assay is described as follows: Cell viability assay, LNCap. The format is cell-based. Particulars: Homo sapiens, LNCaP, 144 h, read-out: LNCap (GI50, nM). The procedure, abridged: as §1

Where two headings read alike, the source gives them in different places. A value given as a limit tells only on which side of the number the result lay.

full-length androgen receptor, sequence (P10275 whole entry): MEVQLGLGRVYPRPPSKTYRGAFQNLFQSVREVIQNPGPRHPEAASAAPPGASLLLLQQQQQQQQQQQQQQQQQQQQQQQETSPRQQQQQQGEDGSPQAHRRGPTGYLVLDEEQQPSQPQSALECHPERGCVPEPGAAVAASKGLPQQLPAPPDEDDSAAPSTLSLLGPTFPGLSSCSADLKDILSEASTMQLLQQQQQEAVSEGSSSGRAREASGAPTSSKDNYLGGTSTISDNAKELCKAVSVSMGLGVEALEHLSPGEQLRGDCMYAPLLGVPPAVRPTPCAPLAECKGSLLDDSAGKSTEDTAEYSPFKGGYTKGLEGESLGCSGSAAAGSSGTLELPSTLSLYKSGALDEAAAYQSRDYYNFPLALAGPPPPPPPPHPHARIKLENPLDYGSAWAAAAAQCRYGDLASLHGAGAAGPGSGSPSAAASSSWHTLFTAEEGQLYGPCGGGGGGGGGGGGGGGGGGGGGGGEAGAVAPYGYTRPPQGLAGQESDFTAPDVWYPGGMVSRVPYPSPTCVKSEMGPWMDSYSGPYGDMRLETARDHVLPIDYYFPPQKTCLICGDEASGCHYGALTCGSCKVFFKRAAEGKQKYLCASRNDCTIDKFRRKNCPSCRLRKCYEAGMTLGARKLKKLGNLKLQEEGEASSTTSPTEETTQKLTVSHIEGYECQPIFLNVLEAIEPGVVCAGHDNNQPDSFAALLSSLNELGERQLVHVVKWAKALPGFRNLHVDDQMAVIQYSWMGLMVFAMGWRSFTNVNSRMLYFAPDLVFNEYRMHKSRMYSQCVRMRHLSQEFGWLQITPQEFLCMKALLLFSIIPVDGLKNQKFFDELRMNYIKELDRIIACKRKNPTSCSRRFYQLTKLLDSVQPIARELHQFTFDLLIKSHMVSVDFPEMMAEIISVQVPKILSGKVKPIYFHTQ
AR, sequence (P10275 whole entry T878A): as the sequence (P10275 whole entry) above, with T878A counted along it
ligand binding domain of the glucocorticoid receptor, sequence (P04150 524-758): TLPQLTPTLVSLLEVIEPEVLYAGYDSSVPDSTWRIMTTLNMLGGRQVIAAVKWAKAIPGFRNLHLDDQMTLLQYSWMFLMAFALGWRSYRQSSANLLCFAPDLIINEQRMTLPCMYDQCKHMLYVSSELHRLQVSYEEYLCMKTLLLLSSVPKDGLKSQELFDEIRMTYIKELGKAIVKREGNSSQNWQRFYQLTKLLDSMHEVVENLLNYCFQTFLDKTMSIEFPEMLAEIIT
Progesterone Receptor (PR)-LBD, sequence (P06401 679-913, species assumed): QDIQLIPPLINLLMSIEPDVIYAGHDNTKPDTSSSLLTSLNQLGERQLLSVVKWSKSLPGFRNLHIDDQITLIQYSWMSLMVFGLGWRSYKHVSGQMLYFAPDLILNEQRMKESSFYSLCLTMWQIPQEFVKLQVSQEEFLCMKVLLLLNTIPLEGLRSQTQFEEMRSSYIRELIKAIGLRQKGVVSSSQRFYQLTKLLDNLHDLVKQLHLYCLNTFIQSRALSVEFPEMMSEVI
GR, sequence (P04150 whole entry): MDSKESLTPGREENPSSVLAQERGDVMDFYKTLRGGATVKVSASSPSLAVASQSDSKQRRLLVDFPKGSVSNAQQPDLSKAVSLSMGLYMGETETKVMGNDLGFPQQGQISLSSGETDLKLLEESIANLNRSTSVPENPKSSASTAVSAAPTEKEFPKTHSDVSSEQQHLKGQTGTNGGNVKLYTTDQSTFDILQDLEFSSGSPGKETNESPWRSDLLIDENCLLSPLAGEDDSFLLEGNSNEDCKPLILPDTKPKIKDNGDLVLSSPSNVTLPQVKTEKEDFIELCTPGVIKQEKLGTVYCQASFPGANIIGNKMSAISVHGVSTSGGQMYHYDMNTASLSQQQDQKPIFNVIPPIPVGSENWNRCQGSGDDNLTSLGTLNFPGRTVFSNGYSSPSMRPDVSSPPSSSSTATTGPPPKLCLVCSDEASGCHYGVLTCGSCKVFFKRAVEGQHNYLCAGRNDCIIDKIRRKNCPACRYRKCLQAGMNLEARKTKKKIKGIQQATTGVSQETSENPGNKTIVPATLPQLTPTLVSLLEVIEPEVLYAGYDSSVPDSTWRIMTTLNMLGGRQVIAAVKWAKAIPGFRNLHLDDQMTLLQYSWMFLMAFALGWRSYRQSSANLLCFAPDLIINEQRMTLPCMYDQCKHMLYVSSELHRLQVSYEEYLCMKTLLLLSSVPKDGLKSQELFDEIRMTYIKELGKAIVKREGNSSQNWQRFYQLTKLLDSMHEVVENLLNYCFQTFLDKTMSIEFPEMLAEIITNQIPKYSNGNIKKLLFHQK
Progesterone PR-B receptors, sequence (P06401 whole entry): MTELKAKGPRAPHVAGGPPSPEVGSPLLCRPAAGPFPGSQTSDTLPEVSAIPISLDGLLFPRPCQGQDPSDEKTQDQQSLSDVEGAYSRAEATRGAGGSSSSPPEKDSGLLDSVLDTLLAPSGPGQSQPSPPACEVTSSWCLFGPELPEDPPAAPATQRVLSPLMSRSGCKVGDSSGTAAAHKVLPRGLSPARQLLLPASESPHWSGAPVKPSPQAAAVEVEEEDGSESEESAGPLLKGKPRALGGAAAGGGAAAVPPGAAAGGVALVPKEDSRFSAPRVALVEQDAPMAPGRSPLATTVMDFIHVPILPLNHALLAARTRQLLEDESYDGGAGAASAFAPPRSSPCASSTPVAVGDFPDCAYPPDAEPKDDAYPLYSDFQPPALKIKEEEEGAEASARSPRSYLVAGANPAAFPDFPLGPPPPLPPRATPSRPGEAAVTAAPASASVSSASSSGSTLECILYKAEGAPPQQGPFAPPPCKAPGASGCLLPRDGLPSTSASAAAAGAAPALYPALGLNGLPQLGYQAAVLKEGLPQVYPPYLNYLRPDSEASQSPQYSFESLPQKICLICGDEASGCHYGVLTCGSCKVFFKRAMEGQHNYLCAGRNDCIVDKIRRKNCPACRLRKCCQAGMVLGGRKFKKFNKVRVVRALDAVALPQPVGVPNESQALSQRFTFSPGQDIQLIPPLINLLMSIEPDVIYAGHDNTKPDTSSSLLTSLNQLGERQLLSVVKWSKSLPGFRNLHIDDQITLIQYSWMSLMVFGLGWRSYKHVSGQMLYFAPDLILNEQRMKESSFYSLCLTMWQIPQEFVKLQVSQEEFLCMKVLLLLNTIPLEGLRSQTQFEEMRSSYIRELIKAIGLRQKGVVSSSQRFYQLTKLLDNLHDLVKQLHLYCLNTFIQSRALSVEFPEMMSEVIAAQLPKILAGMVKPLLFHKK

A word on the GI50: it is the concentration that inhibits growth by half. Take `CCc1c2c(nc3ccc(OC(=O)N4CCN(C(=O)CCCCCN(C)c5ccc([C@H]6C[C@@]7(C)[C@@H](CC[C@]7(OC(C)=O)C(C)=O)[C@@H]7CCC8=CC(=O)CCC8=C76)cc5)CC4)cc13)-c1cc3c(c(=O)n1C2)COC(=O)[C@]3(O)CC` [Compound 3, (S)-4,11-diethyl-4-hydroxy-3,14-dioxo-3,4,12,14-tetrahydro-1H-pyrano[3′,4′:6,7]indolizino[1,2-b]quinolin-9-yl 4-(6-((4-((8S,11R,13S,14S,17R)-17-acetoxy-17-acetyl-13-methyl-3-oxo-2,3,6,7,8,11,12,13,14,15,16,17-dodecahydro-1H-cyclopenta[a]phenanthren-11-yl)phenyl)(methyl)amino)hexanoyl)piperazine-1-carboxylate]: the IC50 was 10 to 500 nM in assay [1]; < 10 nM at AR (cytosol from LnCaP cells, 3H-R1881 1 nM, 4° C. 24 hrs, read-out: AR binding); < 10 nM in [2]; < 10 nM in assay [3]; 10 to 500 nM in assay [4]; < 10 nM on GR. For the same compound, the IC50 with IEC6 cells is 501 to 1000 nM. The GI50 in the assay with T47D cells and with LNCap cells was 10 to 500 nM throughout.
Regarding `CC[C@@]1(O)C(=O)OCc2c1cc1n(c2=O)Cc2cc3c(CN(C)C)c(OC(=O)N4CCN(CCCCCCN(C)c5ccc([C@H]6C[C@@]7(C)[C@@H](CC[C@]7(OC(C)=O)C(C)=O)[C@@H]7CCC8=CC(=O)CCC8=C76)cc5)CC4)ccc3nc2-1` [Compound 5, (S)-10-((dimethylamino)methyl)-4-ethyl-4-hydroxy-3,14-dioxo-3,4,12,14-tetrahydro-1H-pyrano[3′,4′:6,7]indolizino[1,2-b]quinolin-9-yl 4-(6-((4-((8S,11R,13S,14S,17R)-17-acetoxy-17-acetyl-13-methyl-3-oxo-2,3,6,7,8,11,12,13,14,15,16,17-dodecahydro-1H-cyclopenta[a]phenanthren-11-yl)phenyl)(methyl)amino)hexyl)piperazine-1-carboxylate], the IC50 was 10 to 500 nM in assay [1]; 10 to 500 nM on AR; < 10 nM in assay [2]; < 10 nM in assay [3]; > 1000 nM in [4]; < 10 nM at GR. Moreover, the IC50 in the assay with IEC6 cells was 501 to 1000 nM. Moreover, the GI50 with T47D cells and in the assay on LNCap cells was 10 to 500 nM each time.
